Measurements: patent US9155791B2, “Metallation enhancements in tumor-imaging and PDT therapy” (Health Research, Inc., priority 2010, dated 2015)

System: tumors
Test: Fluorescence tumor imaging dose versus PDT therapeutic dose (FIG. 4)
Assay type: in vivo

With `CCCCCCOC(C)c1c(C)c2cc3nc(c4c5[nH]c(cc6nc(cc1[nH]2)C(C)=C6CC)c(C)c5C(=O)C4)C(CCC(=O)Nc1ccc(SC2=C(C=CC4=[N+](CCCCS(=O)(=O)[O-])c5ccc6ccccc6c5C4(C)C)CCCC2=CC=C2N(CCCCS(=O)(=O)[O-])c4ccc5ccccc5c4C2(C)C)cc1)C3C.[Na+]` (stereo not shown) [HPPH-CD] the “therapeutic dose relative to tumor-imaging dose (fold higher)” value was about 10 fold.
